Reference: a flash point compilation (Sun et al. 2020)

Row | flash point [°C] | Structure (SMILES)
1 | 22.00 | C[Si](C)(Cl)CCl [Chloromethyldimethylchlorosilane]
2 | -19.00 | C[SiH](C)O[Si](C)(C)C [Pentamethyldisiloxane]
3 | -8.00 | CO[Si](C)(C)OC [Dimethyldimethoxysilane]
4 | -4.00 | CC[Si](C)(C)Cl [Ethyldimethylchlorosilane]
5 | 10.00 | CCCO[Si](C)(C)C [Trimethyl-n-propoxysilane]
6 | -35.00 | C[Si](C)(C)F [Trimethylfluorosilane]
7 | 146.00 | CO[Si](CCC1CCC2OC2C1)(OC)OC (configuration not stated) [2-(3,4-epoxycyclohexyl)ethyltrimethoxysilane]
8 | -3.00 | CC[SiH](CC)CC [Triethylsilane]
9 | 35.00 | CCN(CC)[Si](C)(C)N(CC)CC [Bis(diethylamino)dimethylsilane]
10 | 12.00 | C=C[Si](C)(C)O[Si](C)(C)C [Vinylpentamethyldisiloxane]
11 | 62.00 | C[Si](C)(C)Cc1ccccc1 [Benzyltrimethylsilane]
12 | 38.00 | C[Si](C)(C)OC1=CCCC1 [(Cyclopentenyloxy)trimethylsilane]
13 | 32.00 | C[Si]1(C)O[Si](C)(C)O[Si](C)(C)O1 [Hexamethylcyclotrisiloxane]
14 | 23.00 | C=C[Si](OC)(OC)OC [Vinyltrimethoxysilane]
15 | 37.00 | CC(C)C[Si](Cl)(Cl)Cl [Isobutyltrichlorosilane]
16 | 43.00 | CCO[Si](CC)(CC)OCC [Diethyldiethoxysilane]
17 | 85.00 | CCCCCC[Si](C)(Cl)Cl [n-Hexylmethyldichlorosilane]
18 | 8.00 | C[Si](C)(C)N[Si](C)(C)C [Hexamethyldisilazane]

Row | flash point [°C] | Structure (SMILES)
19 | 79.00 | C[Si](C)(C)O[Si](C)(C)O[Si](C)(C)O[Si](C)(C)O[Si](C)(C)C [Dodecamethylpentasiloxane]
20 | 97.00 | CCCCCCCC[Si](C)(C)Cl [n-Octyldimethylchlorosilane]
21 | -10.00 | C=CO[Si](C)(C)C [Trimethyl(vinyloxy)silane]
22 | 45.00 | CC(C)(C)[Si](C)(C)O [t-Butyldimethylsilanol]
23 | 24.00 | CCO[Si](C)(OCC)OCC [Methyltriethoxysilane]
24 | 27.00 | C[Si](C)(C)N1CCOCC1 [N-(Trimethylsilyl)morpholine]
25 | 49.00 | C[Si](C)(C)c1ccc(Cl)cc1 [p-Chlorophenyltrimethylsilane]
26 | 10.00 | CCN(CC)[Si](C)(C)C [(Diethylamino)trimethylsilane]
27 | 42.00 | CCCCCC#C[Si](C)(C)C [1-Heptynyltrimethylsilane]
28 | 18.00 | C=CC=CC[Si](C)(C)C [(2,4-Pentadienyl)trimethylsilane]
29 | 25.00 | C=CC=CO[Si](C)(C)C [1-(Trimethylsiloxy)-1,3-butadiene]
30 | 77.00 | C[Si]1(C)O[Si](C)(C)O[Si](C)(C)O[Si](C)(C)O[Si](C)(C)O1 [Decamethylcyclopentasiloxane]
31 | 27.00 | C#CCO[Si](C)(C)C [Propargyloxytrimethylsilane]
32 | 45.00 | CO[Si](C)(CCCCl)OC [3-Chloropropylmethyldimethoxysilane]
33 | 27.00 | CCC[Si](C)(Cl)Cl [n-Propylmethyldichlorosilane]
34 | 22.00 | CC(C)(C)[Si](C)(C)Cl [t-Butyldimethylchlorosilane]
35 | 92.00 | C=C(C)C(=O)OCCC[Si](OC)(OC)OC [3-Methacryloxypropyltrimethoxysilane]

The next lines start with the compound.

Row | Structure (SMILES) | flash point [°C]
36 | CC[SiH3] [Ethylsilane] | -60.00
37 | CO[Si](OC)(c1ccccc1)c1ccccc1 [Diphenyldimethoxysilane] | 121.00
38 | CC[Si](CC)(CC)O[Si](CC)(CC)CC [Hexaethyldisiloxane] | 76.00
39 | O=C=N[Si](N=C=O)(N=C=O)N=C=O [Tetraisocyanatosilane] | 50.00
40 | CCCCCCCC[Si](Cl)(Cl)Cl [n-Octyltrichlorosilane] | 96.00
41 | CCC[Si](O[SiH](C)C)(O[SiH](C)C)O[SiH](C)C [Propyltris(dimethylsiloxy)silane] | 50.00
42 | C[SiH](C)c1ccccc1 [Phenyldimethylsilane] | 38.00
43 | CCCCCCCCCCCCCCCC[Si](Cl)(Cl)Cl [Hexadecyltrichlorosilane] | 154.00
44 | c1ccc([SiH2]c2ccccc2)cc1 [Diphenylsilane] | 98.00
45 | C[Si]1(C)N[Si](C)(C)N[Si](C)(C)N[Si](C)(C)N1 [Octamethylcyclotetrasilazane] | 66.00
46 | C[Si]1(C)O[Si](C)(C)O[Si](C)(C)O[Si](C)(C)O[Si](C)(C)O[Si](C)(C)O1 [Dodecamethylcyclohexasiloxane] | 93.00
47 | Cl[Si](Cl)(Cl)CCc1ccccc1 [Trichloro(2-phenylethyl)silane] | 91.00
48 | N#CCCC[Si](Cl)(Cl)Cl [Trichloro(3-cyanopropyl) Silane] | 92.00
49 | CC(C)(C)O[Si](C)(C)C [t-Butoxytrimethylsilane] | 14.00
50 | Cl[Si](Cl)(Cl)C1CCCCC1 [Cyclohexyltrichlorosilane] | 85.00
51 | CCCCCCCCCC[Si](C)(Cl)Cl [n-Decylmethyldichlorosilane] | 120.00
52 | C[SiH](C)C(C)(C)C [t-Butyldimethylsilane] | -22.00
53 | CCCCCCCCCCCC[Si](C)(Cl)Cl [n-Dodecylmethyldichlorosilane] | 143.00
54 | CO[Si](OC)(OC)c1ccccc1 [Phenyltrimethoxysilane] | 85.00
55 | Cl[Si](Cl)(c1ccccc1)c1ccccc1 [Diphenyldichlorosilane] | 142.00
56 | [SiH3]c1ccccc1 [Phenylsilane] | 8.00
57 | CCCCCC[Si](Cl)(Cl)Cl [n-Hexyltrichlorosilane] | 85.00
58 | CCCCCCCCCCCC[Si](Cl)(Cl)Cl [n-Dodecyltrichlorosilane] | 162.00

Remark: another data set of the same source

Row | Structure (SMILES) | flash point [°C]
59 | Cc1ccccc1 [Toluene] | 4.40
60 | Nc1ccccc1 [Aniline] | 70.00
61 | CCCCCCCC(=O)O [Octanoic acid] | 132.00

Remark: another data set of the same source

Row | flash point [°C] | Structure (SMILES)
62 | -8.0 | C=CCCCCC [1-Heptene]
63 | -11.0 | CCN(CC)CC [Triethylamine]

Further lines, the compound ahead of its results:

Row | Structure (SMILES) | flash point [°C]
64 | Cc1ccccc1 [Toluene] | 6.0
65 | Nc1ccccc1 [Aniline] | 71.0
66 | CCCCCCCC(=O)O [Octanoic acid] | 127.0
67 | NCCN [1,2-Ethanediamine] | 38
68 | CCCCCCC(C)CC (configuration not stated) [Nonane, 3-methyl-] | 46.0
69 | CNC [Dimethylamine] | -49.9
70 | CCCCCCCCCCCCO [1-DODECANOL] | 125
71 | CCCCCCCCCO [1-NONANOL] | 95
72 | CCC(O)CC [3-Pentanol] | 30.0
